This passage reports mortality results from patent publication US8642597B2, “Pyrazole compounds for controlling invertebrate pests” (BASF SE, priority 2007, dated 2014).

As usually defined, the mortality is the percentage killed. Higher therefore signals fewer survivors.

Holding throughout (format): in vivo
Assay [1] deals with Cowpea Aphid (aphis craccivora). Put plainly: Cowpea aphid (aphis craccivora), spray on potted cowpea plants. To be noted: population reduction assessed after 24, 72 and 120 hours, in comparison with untreated controls. The method, then: The active compounds were formulated in 50:50 (vol:vol) acetone:water. The test solution was prepared at the day of use.
Potted cowpea plants colonized with 100-150 aphids of various stages were sprayed after the pest population had been recorded. Population reduction was assessed after 24, 72, and 120 hours.

Assay [2] concerns Vetch Aphid (Megoura viciae). The assay can be described thus: Vetch aphid (Megoura viciae), bean leaf disk microtiterplate test. To be noted: foliar, 144 h, concentration of the test solution 2500 mg/L, 6 days. The method, then:
The active compounds were formulated in 1:3 (vol:vol) DMSO:water with different concentrations of formulated compounds.
Bean leaf disks were placed into microtiterplates filled with 0.8% agar-agar and 2.5 ppm OPUS™. The leaf disks were sprayed with 2.5 μl of the test solution and 5 to 8 adult aphids were placed into the microtiterplates which were then closed and kept at 23±1° C. and 50±5% relative humidity under fluorescent light for 6 days. Mortality was assessed on the basis of vital, reproduced aphids. Aphid mortality and fecundity was then visually assessed.

The subject of assay [3] is Boll Weevil (Anthonomus grandis). Put plainly: Boll weevil (Anthonomus grandis), insect diet microtiter plate test. To be noted: 120 h, concentration of the test solution 2500 mg/L, egg and larval mortality after 5 days. The method, then: The compounds were formulated in 75:25 (vol:vol) water:DMSO.
For evaluating control of boll weevil (Anthonomus grandis) the test unit consisted of 24-well-microtiter plates containing an insect diet and 20-30 A. grandis eggs. Different concentrations of formulated compounds were sprayed onto the insect diet at 20 μl, using a custom built micro atomizer, at two replications. After application, the microtiter plates were incubated at 23±1° C. and 50±5% relative humidity for 5 days. Egg and larval mortality was then visually assessed.

The test system of assay [4] is Cotton Aphid (aphis gossypii, Mixed Life Stages). The assay can be described thus: Cotton aphid (aphis gossypii, mixed life stages), cotyledon dip test. To be noted: 120 h, mortality counts after 5 days, in comparison with untreated controls. The source says: (§1) The active compounds were formulated in 50:50 (vol:vol) acetone:water and 100 ppm Kinetica™ surfactant.
Cotton plants at the cotyledon stage (one plant per pot) were infested by placing a heavily infested leaf from the main colony on top of each cotyledon. The aphids were allowed to transfer to the host plant overnight, and the leaf used to transfer the aphids was removed. The cotyledons were dipped in the test solution and allowed to dry. After 5 days, mortality counts were made.

In assay [5] the test system is Green Peach Aphid (Myzus persicae, Mixed Life Stages). The assay can be described thus: Green peach aphid (Myzus persicae, mixed life stages), pepper leaf dip test. To be noted: foliar, 120 h, after 5 days, in comparison with untreated controls.
From the text: as §1
Pepper plants in the 2nd leaf-pair stage (variety ‘California Wonder’) were infested with approximately 40 laboratory-reared aphids by placing infested leaf sections on top of the test plants. The leaf sections were removed after 24 hr. The leaves of the intact plants were dipped into gradient solutions of the test compound and allowed to dry. Test plants were maintained under fluorescent light (24 hour photoperiod) at about 25° C. and 20-40% relative humidity. Aphid mortality on the treated plants, relative to mortality on check plants, was determined after 5 days.

Assay [6] concerns Southern Armyworm (spodoptera eridania, 2nd instar larvae). The assay can be described thus: Southern armyworm (spodoptera eridania, 2nd instar larvae), lima bean leaf dip test. To be noted: foliar, 96 h, at 4 days, in comparison with untreated controls. The method, then:
as §1
A pair of first true leaves of Sieva lima bean was dipped in the test solution and allowed to dry. The leaf was then placed in a plastic perforated zip enclosure bag and ten 2nd instar larvae were added. At 4 days, observations were made of mortality and reduced feeding.

With `CCS/C(=N\c1cccnc1)c1cn(C)nc1C(F)(F)F` [Compound 243], the mortality at 300 ppm in assay [1] is at least 75%; in assay [4], at least 75%; in assay [5], at least 50%. In addition, the mortality at 2500 µg/mL in assay [2] is at least 80%; in assay [3] it was 100%.
For `O=C(Nc1cccnc1)c1cnn(-c2ccccc2Cl)c1C(F)F` [Compound 148], the values for the mortality at 300 ppm in assay [1], in assay [4] and in assay [5] were at least 75%, at least 75% and at least 50%, respectively. Also, the mortality at 2500 µg/mL is at least 80% in assay [2] and 100% in assay [3].
As for `COc1ccccc1-n1ncc(C(=O)Nc2cccnc2)c1C(F)F` [Compound 150], the mortality at 2500 µg/mL was at least 80% in assay [2] and 100% in assay [3]. Besides, the results for the mortality at 300 ppm in assay [4] and in assay [5] were at least 75% and at least 50%, respectively.
With `Cn1cc(C(=O)Nc2cccnc2)c(C(F)(F)F)n1` [Compound 196], the mortality at 300 ppm was at least 75% in assay [1], at least 50% in assay [6], at least 75% in assay [4] and at least 50% in assay [5].
In the case of `CN(C(=O)c1cnn(C(F)F)c1C(F)(F)F)c1cccnc1` [Compound 191], the mortality at 300 ppm in assay [1] was at least 75%; in assay [6], at least 50%; in assay [4], at least 75%. The mortality at 2500 µg/mL in assay [2] is at least 80%; in assay [3] it was 100%.
Regarding `Cc1cccc(-n2ncc(C(=O)Nc3cccnc3)c2C(F)F)c1` [Compound 158], the mortality at 300 ppm in assay [1] was at least 75%; in assay [6], at least 50%; in assay [4] it was at least 75%; in assay [5], at least 50%. In assay [2], this molecule returned a mortality at 2500 µg/mL of at least 80%.
On to `Cn1cc(C(=O)Nc2cccnc2)c(OC(F)F)n1` [Compound 110], for which the mortality at 300 ppm in assay [1] is at least 75%; in assay [4], at least 75%; in assay [5], at least 50%. Also, the mortality at 2500 µg/mL in assay [2] is at least 80%; in assay [3], 100%.
Regarding `Cc1nn(C(F)F)cc1C(=O)Nc1cccnc1` [Compound 209], the mortality at 300 ppm in assay [1] is at least 75%; in assay [6], at least 50%; in assay [4], at least 75%; in assay [5], at least 50%.
Consider `Cn1cc(C(=O)Nc2cccnc2)cn1` [Compound 107], for which the mortality at 300 ppm in assay [1] is at least 75%; in assay [4], at least 75%; in assay [5], at least 50%. The values for the mortality at 2500 µg/mL in assay [2] and in assay [3] were at least 80% and 100%, respectively.
In assay [6], `Cn1nc(C(F)(F)F)c(C(=O)Nc2cccnc2)c1F` [Compound 78] showed a mortality at 300 ppm of at least 50%.
As to `Cn1cc(C(=O)Nc2cccnc2)c(C(F)F)n1` [Compound 170], the mortality at 300 ppm in assay [1] is at least 75%; in assay [6], at least 50%; in assay [4] it was at least 75%; in assay [5], at least 50%.
As to `O=C(Nc1cccnc1)c1cn[nH]c1` [Compound 87], the mortality at 300 ppm was at least 75% in assay [1], at least 75% in assay [4] and at least 50% in assay [5]. The figures for the mortality at 2500 µg/mL in assay [2] and in assay [3] were at least 80% and 100%, respectively.
Take `O=C(Nc1cccnc1)c1cn(C(F)F)nc1C(F)F` [Compound 194]: the mortality at 300 ppm in assay [1] is at least 75%; in assay [4], at least 75%; in assay [5], at least 50%. In addition, the mortality at 2500 µg/mL in assay [2] was at least 80%; in assay [3], 100%.
With `O=C(Nc1cccnc1)c1cnn(-c2ccc(F)cc2)c1C(F)(F)F` [Compound 228], the mortality at 2500 µg/mL in assay [2] is at least 80%. Also, the mortality at 300 ppm in assay [6] was at least 50%; in assay [4] it was at least 75%; in assay [5], at least 50%.
For `Cc1ccc(-n2ncc(C(=O)Nc3cccnc3)c2C(F)F)cc1` [Compound 138], the mortality at 300 ppm in assay [1] is at least 75%; in assay [4], at least 75%; in assay [5], at least 50%. The mortality at 2500 µg/mL is at least 80% in assay [2] and 100% in assay [3].
As for `CN(C(=O)c1cnn(C(F)(F)F)c1)c1cccnc1` [Compound 233], the results for the mortality at 300 ppm in assay [6], in assay [4] and in assay [5] were at least 50%, at least 75% and at least 50%, respectively.
Consider `Cn1ncc(C(=O)Nc2cccnc2)c1C(F)F` [Compound 167], for which the mortality at 300 ppm in assay [1] was at least 75%; in assay [4], at least 75%; in assay [5], at least 50%. In addition, the values for the mortality at 2500 µg/mL in assay [2] and in assay [3] were at least 80% and 100%, respectively.
On to `CN(C(=O)c1cnn(C)c1C(F)(F)F)c1cccnc1` [Compound 174], for which the mortality at 300 ppm is at least 75% in assay [1], at least 50% in assay [6], at least 75% in assay [4] and at least 50% in assay [5].
Take `O=C(Nc1cccnc1)c1cnn(C(F)F)c1` [Compound 213]: the mortality at 300 ppm in assay [1] is at least 75%; in assay [6] it was at least 50%; in assay [4] it was at least 75%; in assay [5], at least 50%.
Consider `Cc1c(C(=O)Nc2cccnc2)cnn1C` [Compound 179], for which the mortality at 300 ppm in assay [1] was at least 75%; in assay [6] it was at least 50%; in assay [4], at least 75%; in assay [5], at least 50%.
With `CCc1c(C(=O)N(C)c2cccnc2)cnn1CC` [Compound 185], the mortality at 300 ppm was at least 75% in assay [1], at least 75% in assay [4] and at least 50% in assay [5]. Besides, the values for the mortality at 2500 µg/mL in assay [2] and in assay [3] were at least 80% and 100%, respectively.
Turning to `CCCn1cc(C(=O)Nc2cccnc2)cn1` [Compound 108], the mortality at 300 ppm was at least 75% in assay [1], at least 75% in assay [4] and at least 50% in assay [5]. The values for the mortality at 2500 µg/mL in assay [2] and in assay [3] were at least 80% and 100%, respectively.
Turning to `CCn1ncc(C(=O)N(C)c2cccnc2)c1C(F)(F)F` [Compound 186], the mortality at 300 ppm was at least 75% in assay [1], at least 75% in assay [4] and at least 50% in assay [5]. In addition, the results for the mortality at 2500 µg/mL in assay [2] and in assay [3] were at least 80% and 100%, respectively.
On to `O=C(Nc1cccnc1)c1cnn(-c2ccc([N+](=O)[O-])cc2)c1C(F)(F)F` [Compound 199], for which the mortality at 300 ppm in assay [1] is at least 75%; in assay [6] it was at least 50%; in assay [4], at least 75%; in assay [5] it was at least 50%.
On to `CC(C)Cn1cc(C(=O)Nc2cccnc2)cn1` [Compound 98], for which the mortality at 300 ppm in assay [1] was at least 75%; in assay [6] it was at least 50%; in assay [4], at least 75%; in assay [5] it was at least 50%. In addition, the mortality at 2500 µg/mL in assay [2] is at least 80%.
As for `O=C(Nc1cccnc1)c1cnn(C(F)F)c1C(F)(F)F` [Compound 190], the mortality at 300 ppm in assay [1] was at least 75%; in assay [4], at least 75%; in assay [5], at least 50%. For the same molecule, the values for the mortality at 2500 µg/mL in assay [2] and in assay [3] were at least 80% and 100%, respectively.
As to `Cc1ccccc1-n1ncc(C(=O)Nc2cccnc2)c1C(F)F` [Compound 156], the mortality at 300 ppm was at least 75% in assay [1], at least 75% in assay [4] and at least 50% in assay [5]. Besides, the mortality at 2500 µg/mL was at least 80% in assay [2] and 100% in assay [3].
